Experiments:
Type in all cases: in vivo
Kochia (Kochia scoparia) [1] = test: Test A preemergence; settings: Bassia scoparia, pre-emergence, 240 h, 0 to 100 scale where 0 is no effect and 100 is complete control, read-out: Kochia plant response rating; for pest or weed control at 31 g/ha: 31 g ai/ha, Preemergence; for pest or weed control at 125 g/ha: 125 g ai/ha, preemergence, approx. 10 d
Outline: (§1)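 In a loam soil and sand blend, planted seeds got a preemergence directed soil spray, and young plants at the one- to two-leaf stage, 2–10 cm high, got a postemergence application; ~10 d greenhouse hold; injury rated visually, 0 = none, 100 = complete control.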

[2] = system: barnyardgrass (Echinochloa crus-galli); test: Test A preemergence; settings: Echinochloa crus-galli, pre-emergence, 240 h, Preemergence; for pest or weed control at 31 g/ha: 31 g ai/ha, 0 to 100 scale where 0 is no effect and 100 is complete control, read-out: Barnyardgrass plant response rating; for pest or weed control at 125 g/ha: 125 g ai/ha, visual injury rating after approximately 10 d, read-out: Barnyardgrass plant response rating (0 to 100 scale, 0 is no effect, 100 is complete control)
Outline: as §1

[3] = system: giant foxtail (Setaria faberii); test: Test A preemergence; settings: Setaria faberi, pre-emergence, 240 h, Preemergence; for pest or weed control at 31 g/ha: 31 g ai/ha, 0 to 100 scale where 0 is no effect and 100 is complete control, read-out: Foxtail, Giant plant response rating; for pest or weed control at 125 g/ha: 125 g ai/ha, visual injury rating after approximately 10 d, read-out: Foxtail, Giant plant response rating (0 to 100 scale, 0 is no effect, 100 is complete control)
Outline: as §1

[4] = system: pigweed (Amaranthus retroflexus); test: Test A preemergence; settings: Amaranthus retroflexus, pre-emergence, 240 h, 0 to 100 scale where 0 is no effect and 100 is complete control, read-out: Pigweed plant response rating; for pest or weed control at 31 g/ha: 31 g ai/ha, Preemergence; for pest or weed control at 125 g/ha: 125 g ai/ha, preemergence, approx. 10 d
[5] = system: ragweed (common ragweed, Ambrosia elatior); test: Test A preemergence; settings: Ambrosia artemisiifolia, pre-emergence, 240 h, 0 to 100 scale where 0 is no effect and 100 is complete control, read-out: Ragweed plant response rating; for pest or weed control at 31 g/ha: 31 g ai/ha, Preemergence; for pest or weed control at 125 g/ha: 125 g ai/ha, preemergence, approx. 10 d
Outline: as §1

[6] = system: ryegrass, Italian (Italian ryegrass, Lolium multiflorum); test: Test A preemergence; settings: Lolium multiflorum, pre-emergence, 240 h, 0 to 100 scale where 0 is no effect and 100 is complete control, read-out: Ryegrass, Italian plant response rating; for pest or weed control at 31 g/ha: 31 g ai/ha, Preemergence; for pest or weed control at 125 g/ha: 125 g ai/ha, preemergence, approx. 10 d
Outline: as §1

[7] = system: Galium (catchweed bedstraw, Galium aparine); test: Test A postemergence; settings: Galium, post-emergence, 240 h; for pest or weed control at 125 g/ha: 125 g ai/ha, postemergence, visual injury on 0 to 100 scale (0 no effect, 100 complete control), approx. 10 d, read-out: Galium plant response rating; for pest or weed control at 31 g/ha: Postemergence, 31 g ai/ha, visual injury after approx. 10 d, 0 to 100 scale, 0 no effect, 100 complete control, read-out: Plant response rating, Galium
Outline: as §1

Kochia (Kochia scoparia) [8] = test: Test A postemergence; settings: Bassia scoparia, post-emergence, 240 h; for pest or weed control at 125 g/ha: 125 g ai/ha, postemergence, visual injury on 0 to 100 scale (0 no effect, 100 complete control), approx. 10 d, read-out: Kochia plant response rating; for pest or weed control at 31 g/ha: Postemergence, 31 g ai/ha, visual injury after approx. 10 d, 0 to 100 scale, 0 no effect, 100 complete control, read-out: Plant response rating, Kochia
Outline: as §1

[9] = system: barnyardgrass (Echinochloa crus-galli); test: Test A postemergence; settings: Echinochloa crus-galli, post-emergence, 240 h; for pest or weed control at 125 g/ha: 125 g ai/ha, postemergence, visual injury on 0 to 100 scale (0 no effect, 100 complete control), approx. 10 d, read-out: Barnyardgrass plant response rating; for pest or weed control at 31 g/ha: Postemergence, 31 g ai/ha, visual injury after approx. 10 d, 0 to 100 scale, 0 no effect, 100 complete control, read-out: Plant response rating, Barnyardgrass
Outline: as §1

[10] = system: blackgrass (Alopecurus myosuroides); test: Test A postemergence; settings: Alopecurus myosuroides, post-emergence, 240 h; for pest or weed control at 125 g/ha: 125 g ai/ha, postemergence, visual injury on 0 to 100 scale (0 no effect, 100 complete control), approx. 10 d, read-out: Blackgrass plant response rating; for pest or weed control at 31 g/ha: Postemergence, 31 g ai/ha, visual injury after approx. 10 d, 0 to 100 scale, 0 no effect, 100 complete control, read-out: Plant response rating, Blackgrass
Outline: as §1

corn (Zea mays) = test: Test A postemergence; settings: Zea mays, post-emergence, 240 h; for plant injury at 125 g/ha: 125 g ai/ha, postemergence, visual injury on 0 to 100 scale (0 no effect, 100 complete control), approx. 10 d, read-out: Corn plant response rating; for Corn plant response rating (crop injury, 0 = no effect, 100 = complete kill) at 31 g/ha: Postemergence, 31 g ai/ha, visual injury after approx. 10 d, 0 to 100 scale, 100 complete control
Outline: as §1

[11] = system: giant foxtail (Setaria faberii); test: Test A postemergence; settings: Setaria faberi, post-emergence, 240 h; for pest or weed control at 125 g/ha: 125 g ai/ha, postemergence, visual injury on 0 to 100 scale (0 no effect, 100 complete control), approx. 10 d, read-out: Foxtail, Giant plant response rating; for pest or weed control at 31 g/ha: Postemergence, 31 g ai/ha, visual injury after approx. 10 d, 0 to 100 scale, 0 no effect, 100 complete control, read-out: Plant response rating, Foxtail, Giant
Outline: as §1

[12] = system: pigweed (Amaranthus retroflexus); test: Test A postemergence; settings: Amaranthus retroflexus, post-emergence, 240 h; for pest or weed control at 125 g/ha: 125 g ai/ha, postemergence, visual injury on 0 to 100 scale (0 no effect, 100 complete control), approx. 10 d, read-out: Pigweed plant response rating; for pest or weed control at 31 g/ha: Postemergence, 31 g ai/ha, visual injury after approx. 10 d, 0 to 100 scale, 0 no effect, 100 complete control, read-out: Plant response rating, Pigweed
Outline: as §1

[13] = system: ragweed (common ragweed, Ambrosia elatior); test: Test A postemergence; settings: Ambrosia artemisiifolia, post-emergence, 240 h; for pest or weed control at 125 g/ha: 125 g ai/ha, postemergence, visual injury on 0 to 100 scale (0 no effect, 100 complete control), approx. 10 d, read-out: Ragweed plant response rating; for pest or weed control at 31 g/ha: Postemergence, 31 g ai/ha, visual injury after approx. 10 d, 0 to 100 scale, 0 no effect, 100 complete control, read-out: Plant response rating, Ragweed
Outline: as §1

[14] = system: ryegrass, Italian (Italian ryegrass, Lolium multiflorum); test: Test A postemergence; settings: Lolium multiflorum, post-emergence, 240 h; for pest or weed control at 125 g/ha: 125 g ai/ha, postemergence, visual injury on 0 to 100 scale (0 no effect, 100 complete control), approx. 10 d, read-out: Ryegrass, Italian plant response rating; for pest or weed control at 31 g/ha: Postemergence, 31 g ai/ha, visual injury after approx. 10 d, 0 to 100 scale, 0 no effect, 100 complete control, read-out: Plant response rating, Ryegrass, Italian
Outline: as §1

[15] = system: wheat (Triticum aestivum); test: Test A postemergence; settings: Triticum aestivum, post-emergence, 240 h; for plant injury at 125 g/ha: 125 g ai/ha, postemergence, visual injury on 0 to 100 scale (0 no effect, 100 complete control), approx. 10 d, read-out: Wheat plant response rating; for plant injury at 31 g/ha: Postemergence, 31 g ai/ha, visual injury after approx. 10 d, 0 to 100 scale, 0 no effect, 100 complete control, read-out: Plant response rating, Wheat
Outline: as §1

[16] = system: barnyardgrass (Echinochloa crus-galli); test: Test B flooded paddy test; settings: Echinochloa crus-galli, 250 g ai/ha, Flood; 0 to 100 scale where 0 is no effect and 100 is complete control; read-out: Barnyardgrass plant response rating
Outline: (§2)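 Flooding to 3 cm over soil accompanied treatment, which consisted of adding compound to the standing water around 2-leaf plants; depth was then maintained. Visual assessment versus controls followed at 13 to 15 d (scale 0–100, 0 meaning no effect).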

[17] = system: ducksalad (Heteranthera limosa); test: Test B flooded paddy test; settings: Heteranthera limosa, 250 g ai/ha, Flood; 0 to 100 scale where 0 is no effect and 100 is complete control; read-out: Ducksalad plant response rating
Outline: as §2

rice (Oryra sativa) = test: Test B flooded paddy test; settings: Oryza sativa, 250 g ai/ha, Flood; 0 to 100 scale where 0 is no effect and 100 is complete control; read-out: Rice plant response rating
Outline: as §2

[18] = system: sedge, umbrella (small-flower umbrella sedge, Cyperus difformis); test: Test B flooded paddy test; settings: Cyperus difformis, 250 g ai/ha, Flood; 0 to 100 scale where 0 is no effect and 100 is complete control; read-out: Sedge, Umbrella plant response rating
Outline: as §2

Compound | pest or weed control at 31 g/ha (Kochia (Kochia scoparia) [1]) [%] | pest or weed control at 125 g/ha (Kochia (Kochia scoparia) [1]) [%] | pest or weed control at 31 g/ha [2] [%] | pest or weed control at 125 g/ha [2] [%] | pest or weed control at 31 g/ha [3] [%] | pest or weed control at 125 g/ha [3] [%] | pest or weed control at 31 g/ha [4] [%] | pest or weed control at 125 g/ha [4] [%] | pest or weed control at 31 g/ha [5] [%] | pest or weed control at 125 g/ha [5] [%] | pest or weed control at 31 g/ha [6] [%] | pest or weed control at 125 g/ha [6] [%] | pest or weed control at 125 g/ha [7] [%] | pest or weed control at 31 g/ha [7] [%] | pest or weed control at 125 g/ha (Kochia (Kochia scoparia) [8]) [%] | pest or weed control at 31 g/ha (Kochia (Kochia scoparia) [8]) [%] | pest or weed control at 125 g/ha [9] [%] | pest or weed control at 31 g/ha [9] [%] | pest or weed control at 125 g/ha [10] [%] | pest or weed control at 31 g/ha [10] [%] | other results
Cc1ccc([C@H]2CN(C)C(=O)[C@@H]2C(=O)Nc2cnccc2C(F)(F)F)cc1 [Compound 1067] | 0 | 70 | 30 | 100 | 90 | 100 | 0 | 0 | 0 | 60 | 20 | 70 | 50 | 0 | 30 | 0 | 60 | 20 | 50 | 0 | plant injury at 125 g/ha (corn (Zea mays)): 0%; Corn plant response rating (crop injury, 0 = no effect, 100 = complete kill) at 31 g/ha (corn (Zea mays)): 0%; pest or weed control at 125 g/ha [11]: 90%; pest or weed control at 31 g/ha [11]: 30%; pest or weed control at 125 g/ha [12]: 0%; pest or weed control at 31 g/ha [12]: 0%; pest or weed control at 125 g/ha [13]: 0%; pest or weed control at 31 g/ha [13]: 0%; pest or weed control at 125 g/ha [14]: 0%; pest or weed control at 31 g/ha [14]: 0%; plant injury at 125 g/ha [15]: 40%; plant injury at 31 g/ha [15]: 0%; pest or weed control at 250 g/ha [16]: 20%; pest or weed control at 250 g/ha [17]: 85%; pest or weed control at 250 g/ha (rice (Oryra sativa)): 0%; pest or weed control at 250 g/ha [18]: 0%
Cc1ccncc1NC(=O)[C@H]1C(=O)N(C)C[C@@H]1c1ccc(C(F)(F)F)cc1 [Compound 1068] | 0 | 0 | 0 | 0 | 0 | 0 | 0 | 0 | 0 | 0 | 0 | 0 | 0 | 0 | 0 | 0 | 0 | 0 | 0 | 0 | plant injury at 125 g/ha (corn (Zea mays)): 0%; Corn plant response rating (crop injury, 0 = no effect, 100 = complete kill) at 31 g/ha (corn (Zea mays)): 0%; pest or weed control at 125 g/ha [11]: 0%; pest or weed control at 31 g/ha [11]: 0%; pest or weed control at 125 g/ha [12]: 0%; pest or weed control at 31 g/ha [12]: 0%; pest or weed control at 125 g/ha [13]: 0%; pest or weed control at 31 g/ha [13]: 0%; pest or weed control at 125 g/ha [14]: 0%; pest or weed control at 31 g/ha [14]: 0%; plant injury at 125 g/ha [15]: 0%; plant injury at 31 g/ha [15]: 0%; pest or weed control at 250 g/ha [16]: 0%; pest or weed control at 250 g/ha [17]: 90%; pest or weed control at 250 g/ha (rice (Oryra sativa)): 0%; pest or weed control at 250 g/ha [18]: 0%

From patent US12077503B2, “Substituted cyclic amides and their use as herbicides” (FMC CORPORATION, priority 2015, dated 2024)
